From patent publication US11274083B2, “Substituted thiophenyl uracils, salts thereof and the use thereof as herbicidal agents” (Syngenta Crop Protection AG, priority 2017, dated 2022)

Legend:
Assay type in all cases: in vivo
[1] = system: Abutilon theophrasti; assay: Herbicidal action post-emergence, greenhouse pot test; settings: application rate 20 g/ha
Protocol: (§1) Seeds of mono- and dicotyledonous weed plants and crop plants were laid out in sandy loam soil in plastic or wood-fiber pots, covered with soil and grown under controlled growth conditions in a greenhouse. 2 to 3 weeks after sowing, the trial plants were treated at the one-leaf stage. The compounds of the invention formulated in the form of wettable powders (WP) or as emulsion concentrates (EC) were then sprayed onto the green parts of the plant as an aqueous suspension or emulsion with addition of 0.5% additive at a water application rate equivalent to 600 L/ha. After the trial plants had stood for about 3 weeks in the greenhouse, under optimal growth conditions, the effect of the preparations was scored visually by comparison with untreated controls. For example, 100% efficacy=plants have died, 0% efficacy=like control plants. Tables A1 to A16 below show the efficacies of selected compounds of the general formula (I) according to tables I.1 to I.50 on various harmful plants and an application rate corresponding to 80 g/ha or lower that were obtained by the aforementioned trial method.

[2] = system: Viola tricolor; assay: as above; settings: application rate 20 g/ha
Protocol: as §1

[3] = system: Veronica persica; assay: as above; settings: application rate 20 g/ha
Protocol: as §1

[4] = system: Amaranthus retroflexus; assay: as above; settings: application rate 20 g/ha
Protocol: as §1

[5] = system: Zea mays; assay: Crop compatibility post-emergence, greenhouse pot test
Protocol: as §1, with “plants.” for “plants. Tables A1 to A16 below show the efficacies of selected compounds of the general formula (I) according to tables I.1 to I.50 on various harmful plants and an application rate corresponding to 80 g/ha or lower that were obtained by the aforementioned trial method.”
(§2) Crop plant compatibilities were also scored correspondingly.
(§3) The effects observed are reported here on selected crop plants by comparison, with the untreated controls (values in %).

[6] = system: Oryza sativa; assay: as above
Protocol: as §1, with “plants.” for “plants. Tables A1 to A16 below show the efficacies of selected compounds of the general formula (I) according to tables I.1 to I.50 on various harmful plants and an application rate corresponding to 80 g/ha or lower that were obtained by the aforementioned trial method.”
as §2, §3

[7] = system: Triticum aestivum; assay: as above
Protocol: as §1, with “plants.” for “plants. Tables A1 to A16 below show the efficacies of selected compounds of the general formula (I) according to tables I.1 to I.50 on various harmful plants and an application rate corresponding to 80 g/ha or lower that were obtained by the aforementioned trial method.”
as §2, §3

[8] = system: Lolium rigidum; assay: Herbicidal action pre-emergence, greenhouse pot test; settings: application rate 320 g/ha
From the text: Seeds of mono- and dicotyledonous weeds and crop plants were laid out in plastic or organic plant pots and covered with soil. The compounds of the invention formulated in the form of wettable powders (WP) or as emulsion concentrates (EC) were then applied to the surface of the covering soil as an aqueous suspension or emulsion with addition of 0.5% additive at a water application rate equivalent to 600 L/ha. After the treatment, the pots were placed in a greenhouse and kept under good growth conditions for the test plants. After about 3 weeks, the efficacy of the preparations was scored visually as a percentage by comparison with untreated controls. For example, 100% efficacy=plants have died. 0% efficacy=like control plants. Tables B1 to B17 below show the efficacies of selected compounds of the general formula (I) according to tables I.1 to I.50 on various harmful plants and an application rate corresponding to 320 g/ha or lower that were obtained by the aforementioned trial method.

[9] = system: Pharbitis purpurea; assay: Herbicidal action post-emergence, greenhouse pot test; settings: application rate 20 g/ha
Protocol: as §1

[10] = system: Stellaria media; assay: as above; settings: application rate 20 g/ha
Protocol: as §1

[11] = system: Setaria viridis; assay: as above; settings: application rate 20 g/ha
Protocol: as §1

[12] = system: Echinochloa crus-galli; assay: as above; settings: application rate 20 g/ha
Protocol: as §1

[13] = system: Alopecurus myosuroides; assay: as above; settings: application rate 20 g/ha, scored visually after about 3 weeks vs untreated controls
Protocol: as §1

[14] = system: Matricaria inodora; assay: as above; settings: application rate 20 g/ha
Protocol: as §1

[15] = system: Polygonum convolvulus; assay: as above; settings: application rate 20 g/ha
Protocol: as §1

[16] = system: Digitaria sanguinalis; assay: as above; settings: application rate 20 g/ha
[17] = system: Lolium rigidum; assay: as above; settings: application rate 20 g/ha
Protocol: as §1

Compound	Zea mays (Efficacy in %) ([5]; application rate 20 g/ha) [%]	Oryza sativa (Efficacy in %) ([6]; application rate 20 g/ha) [%]	Triticum aestivum (Efficacy in %) ([7]; application rate 20 g/ha) [%]	Triticum aestivum (Efficacy in %) ([7]; application rate 5 g/ha) [%]	Oryza sativa (Efficacy in %) ([6]; application rate 5 g/ha) [%]	Zea mays (Efficacy in %) ([5]; application rate 5 g/ha) [%]	Abutilon theophrasti (Efficacy in %) [1] [%]	Viola tricolor (Efficacy in %) [2] [%]	Veronica persica (Efficacy in %) [3] [%]	Amaranthus retroflexus (Efficacy in %) [4] [%]	Lolium rigidum (Efficacy in %) [8] [%]	Pharbitis purpurea (Efficacy in %) [9] [%]	Stellaria media (Efficacy in %) [10] [%]	Setaria viridis (Efficacy in %) [11] [%]	Echinochloa crus-galli (Efficacy in %) [12] [%]	Alopecurus myosuroides (Efficacy in %) [13] [%]	Matricaria inodora (Efficacy in %) [14] [%]	Polygonum convolvulus (Efficacy in %) [15] [%]	Digitaria sanguinalis (Efficacy in %) [16] [%]	Lolium rigidum (Efficacy in %) [17] [%]
CC(Sc1cc(-n2c(=O)cc(C(F)(F)F)n(C)c2=O)c(F)cc1Cl)C(=O)OCCC(=O)OCc1ccccc1 (stereo not shown) [I.1-6]	10	0	0				100	100	100	100										
CC(Sc1cc(-n2c(=O)cc(C(F)(F)F)n(C)c2=O)c(F)cc1Cl)C(=O)OCCC(=O)OCC1CC1 (stereo not shown) [I.1-7]											90									
CCOC(=O)COC(=O)C(C)Sc1cc(-n2c(=O)cc(C(F)(F)F)n(C)c2=O)c(F)cc1Cl (stereo not shown) [I.1-43]				10			100	100	100	100		100	80	100	100	80	100	100	100	
CC(Sc1cc(-n2c(=O)cc(C(F)(F)F)n(C)c2=O)c(F)cc1Cl)C(=O)OCCC(=O)N(C)C (stereo not shown) [I.1-231]				20	10	20	100	100	100	100		100	100	100	100		100	100	100	
CCC(Sc1cc(-n2c(=O)cc(C(F)(F)F)n(C)c2=O)c(F)cc1Cl)C(=O)OCC(C)(C)C(=O)OC (stereo not shown) [I.2-32]		0		20		20	100	100	100	100		100		100	100	80	100	100	100	80

The next lines start with results.

Zea mays (Efficacy in %) ([5]; application rate 20 g/ha) [%]	Oryza sativa (Efficacy in %) ([6]; application rate 20 g/ha) [%]	Triticum aestivum (Efficacy in %) ([7]; application rate 20 g/ha) [%]	Triticum aestivum (Efficacy in %) ([7]; application rate 5 g/ha) [%]	Oryza sativa (Efficacy in %) ([6]; application rate 5 g/ha) [%]	Zea mays (Efficacy in %) ([5]; application rate 5 g/ha) [%]	Compound	Abutilon theophrasti (Efficacy in %) [1] [%]	Viola tricolor (Efficacy in %) [2] [%]	Veronica persica (Efficacy in %) [3] [%]	Amaranthus retroflexus (Efficacy in %) [4] [%]	Lolium rigidum (Efficacy in %) [8] [%]	Pharbitis purpurea (Efficacy in %) [9] [%]	Stellaria media (Efficacy in %) [10] [%]	Setaria viridis (Efficacy in %) [11] [%]	Echinochloa crus-galli (Efficacy in %) [12] [%]	Alopecurus myosuroides (Efficacy in %) [13] [%]	Matricaria inodora (Efficacy in %) [14] [%]	Polygonum convolvulus (Efficacy in %) [15] [%]	Digitaria sanguinalis (Efficacy in %) [16] [%]	Lolium rigidum (Efficacy in %) [17] [%]
				10		CCNC(=O)CCOC(=O)C(C)Sc1cc(-n2c(=O)cc(C(F)(F)F)n(C)c2=O)c(F)cc1Cl (stereo not shown) [I.1-153]	100	100	100	100		100	100	100	100	90	100	100	100	80
	20					CCN(C)C(=O)CCOC(=O)C(C)Sc1cc(-n2c(=O)cc(C(F)(F)F)n(C)c2=O)c(F)cc1Cl (stereo not shown) [I.1-233]	100	100	100	100		100	100	100	100	90	100	100	100	90
0	0	0				CCCOC(=O)CCOC(=O)C(CC)Sc1cc(-n2c(=O)cc(C(F)(F)F)n(C)c2=O)c(F)cc1Cl (stereo not shown) [I.2-8]	100	100	100	100		100	100	100	100		100	100	100	
			20			CCC(C)C(Sc1cc(-n2c(=O)cc(C(F)(F)F)n(C)c2=O)c(F)cc1Cl)C(=O)OCCC(=O)OC (stereo not shown) [I.5-2]	100	100	100	100		100	100	100	100	80	100	100	80	
			20			CCOC(=O)CCOC(=O)C(Sc1cc(-n2c(=O)cc(C(F)(F)F)n(C)c2=O)c(F)cc1Cl)C(C)CC (stereo not shown) [I.5-3]	100	100	100	100		100	100	100	100	80	100	100	80	
